ChEMBL document CHEMBL1629667, “Activities of dalbavancin against a worldwide collection of 81,673 gram-positive bacterial isolates” (2009)
≈ marks a conversion by molar mass, not a printed value.

What was measured:
Format in all cases: functional
Enterococcus faecalis [1] = assay: Antimicrobial activity against Vancomycin-nonsusceptible Enterococcus faecalis assessed as percent resistant isolates by broth microdilution method
Enterococcus faecium [2] = assay: Antimicrobial activity against Vancomycin-susceptible Enterococcus faecium assessed as percent resistant isolates by broth microdilution method
Enterococcus faecalis [3] = assay: Antimicrobial activity against Vancomycin-susceptible Enterococcus faecalis by broth microdilution method
Enterococcus faecalis [4] = assay: Antimicrobial activity against Vancomycin-nonsusceptible Enterococcus faecalis by broth microdilution method
Enterococcus faecium [5] = assay: Antimicrobial activity against Vancomycin-susceptible Enterococcus faecium by broth microdilution method
Enterococcus faecium [6] = assay: Antimicrobial activity against Vancomycin-nonsusceptible Enterococcus faecium by broth microdilution method
Enterococcus faecalis [7] = assay: Antimicrobial activity against Vancomycin-susceptible Enterococcus faecalis assessed as percent susceptible isolate by broth microdilution method
Enterococcus faecalis [8] = assay: Antimicrobial activity against Vancomycin-nonsusceptible Enterococcus faecalis assessed as percent susceptible isolate by broth microdilution method
Enterococcus faecium [9] = assay: Antimicrobial activity against Vancomycin-susceptible Enterococcus faecium assessed as percent susceptible isolate by broth microdilution method
Enterococcus faecium [10] = assay: Antimicrobial activity against Vancomycin-nonsusceptible Enterococcus faecium assessed as percent susceptible isolate by broth microdilution method
Enterococcus faecalis [11] = assay: Antimicrobial activity against Vancomycin-susceptible Enterococcus faecalis assessed as percent resistant isolates by broth microdilution method
Streptococcus [12] = assay: Antimicrobial activity against Beta-hemolytic Streptococcus assessed as percent resistant isolates by broth microdilution method
Streptococcus [13] = assay: Antimicrobial activity against viridans group Streptococcus assessed as percent resistant isolates by broth microdilution method
Staphylococcus aureus [14] = assay: Antimicrobial activity against Oxacillin-susceptible Staphylococcus aureus assessed as percent resistant isolates by broth microdilution method
Staphylococcus aureus [15] = assay: Antimicrobial activity against Oxacillin-resistant Staphylococcus aureus assessed as percent resistant isolate by broth microdilution method
Staphylococcus aureus [16] = assay: Antimicrobial activity against Oxacillin-susceptible Staphylococcus aureus by broth microdilution method
Staphylococcus aureus [17] = assay: Antimicrobial activity against Oxacillin-resistant Staphylococcus aureus by broth microdilution method
Staphylococcus [18] = assay: Antimicrobial activity against Oxacillin-susceptible coagulase-negative Staphylococcus by broth microdilution method
Staphylococcus [19] = assay: Antimicrobial activity against Oxacillin-resistant coagulase-negative Staphylococcus by broth microdilution method
Streptococcus [20] = assay: Antimicrobial activity against Beta-hemolytic Streptococcus by broth microdilution method
Streptococcus [21] = assay: Antimicrobial activity against viridans group Streptococcus by broth microdilution method
Staphylococcus aureus [22] = assay: Antimicrobial activity against Oxacillin-susceptible Staphylococcus aureus assessed as percent susceptible isolate by broth microdilution method
Staphylococcus aureus [23] = assay: Antimicrobial activity against Oxacillin-resistant Staphylococcus aureus assessed as percent susceptible isolate by broth microdilution method
Staphylococcus [24] = assay: Antimicrobial activity against Oxacillin-susceptible coagulase-negative Staphylococcus assessed as percent susceptible isolate by broth microdilution method
Staphylococcus [25] = assay: Antimicrobial activity against Oxacillin-resistant coagulase-negative Staphylococcus assessed as percent susceptible isolate by broth microdilution method
Streptococcus [26] = assay: Antimicrobial activity against Beta-hemolytic Streptococcus assessed as percent susceptible isolate by broth microdilution method
Streptococcus [27] = assay: Antimicrobial activity against viridans group Streptococcus assessed as percent susceptible isolate by broth microdilution method
Staphylococcus [28] = assay: Antimicrobial activity against Oxacillin-susceptible coagulase-negative Staphylococcus assessed as percent resistant isolate by broth microdilution method
Staphylococcus [29] = assay: Antimicrobial activity against Oxacillin-resistant coagulase-negative Staphylococcus assessed as percent resistant isolate by broth microdilution method

O=C(O)c1cn(C2CC2)c2cc(N3CCNCC3)c(F)cc2c1=O [CIPROFLOXACIN]
Activity (Enterococcus faecalis [1]): 96.3%
Activity (Enterococcus faecium [2]): 83.7%
MIC50 (Enterococcus faecalis [3]): 1 µg/mL (≈ 3.02 µM)
MIC90 (Enterococcus faecalis [3]): > 4 µg/mL
MIC50 (Enterococcus faecalis [4]): > 4 µg/mL
MIC90 (Enterococcus faecalis [4]): > 4 µg/mL
MIC50 (Enterococcus faecium [5]): > 4 µg/mL
MIC90 (Enterococcus faecium [5]): > 4 µg/mL
MIC50 (Enterococcus faecium [6]): > 4 µg/mL
MIC90 (Enterococcus faecium [6]): > 4 µg/mL
Activity (Enterococcus faecalis [7]): 62.2%
Activity (Enterococcus faecalis [8]): 3.7%
Activity (Enterococcus faecium [9]): 8.1%
Activity (Enterococcus faecium [10]): 0.7%
Activity (Enterococcus faecalis [11]): 33.6%

CCC[C@@H]1C[C@@H](C(=O)N[C@@H]([C@H]2O[C@H](SC)[C@H](O)[C@@H](O)[C@H]2O)[C@H](C)Cl)N(C)C1 [CLINDAMYCIN]
Activity (Streptococcus [12]): 19.9%
Activity (Streptococcus [13]): 9.5%
Activity (Staphylococcus aureus [14]): 4%
Activity (Staphylococcus aureus [15]): 52.1%
MIC (Staphylococcus aureus [16]): ≤ 0.25 µg/mL
MIC50 (Staphylococcus aureus [16]): ≤ 0.25 µg/mL
MIC90 (Staphylococcus aureus [16]): ≤ 0.25 µg/mL
MIC50 (Staphylococcus aureus [17]): > 2 µg/mL
MIC90 (Staphylococcus aureus [17]): > 2 µg/mL
MIC (Staphylococcus [18]): ≤ 0.25 µg/mL
MIC50 (Staphylococcus [18]): ≤ 0.25 µg/mL
MIC90 (Staphylococcus [18]): ≤ 0.25 µg/mL
MIC90 (Staphylococcus [19]): > 2 µg/mL
MIC (Streptococcus [20]): 0.25 µg/mL (≈ 0.588 µM)
MIC50 (Streptococcus [20]): 0.25 µg/mL (≈ 0.588 µM)
MIC90 (Streptococcus [20]): 0.25 µg/mL (≈ 0.588 µM)
MIC (Streptococcus [21]): 0.25 µg/mL (≈ 0.588 µM)
MIC50 (Streptococcus [21]): 0.25 µg/mL (≈ 0.588 µM)
MIC90 (Streptococcus [21]): 0.5 µg/mL (≈ 1.18 µM)
Activity (Staphylococcus aureus [22]): 95.8%
Activity (Staphylococcus aureus [23]): 47.8%
Activity (Staphylococcus [24]): 93.5%
Activity (Staphylococcus [25]): 57%
Activity (Streptococcus [26]): 91.4%
Activity (Streptococcus [27]): 89.8%
Activity (Staphylococcus [28]): 5.7%
Activity (Staphylococcus [29]): 41.7%

CN(C)[C@@H]1C(O)=C(C(N)=O)C(=O)[C@@]2(O)C(O)=C3C(=O)c4c(O)cccc4[C@@](C)(O)[C@H]3C[C@@H]12 [TETRACYCLINE]
Activity (Staphylococcus aureus [14]): 5.8%
Activity (Staphylococcus aureus [15]): 18.4%
MIC (Staphylococcus aureus [16]): ≤ 4 µg/mL
MIC50 (Staphylococcus aureus [16]): ≤ 4 µg/mL
MIC90 (Staphylococcus aureus [16]): ≤ 4 µg/mL
MIC90 (Staphylococcus aureus [17]): > 8 µg/mL
MIC (Staphylococcus [18]): ≤ 4 µg/mL
MIC50 (Staphylococcus [18]): ≤ 4 µg/mL
MIC90 (Staphylococcus [18]): > 8 µg/mL
Activity (Staphylococcus aureus [22]): 93.7%
Activity (Staphylococcus aureus [23]): 81.1%
Activity (Staphylococcus [24]): 86.7%
Activity (Staphylococcus [25]): 83.4%
Activity (Staphylococcus [28]): 12.6%
Activity (Staphylococcus [29]): 15.8%

CN[C@H]1C(=O)N[C@@H]2Cc3ccc(cc3)Oc3cc4cc(c3O[C@@H]3O[C@H](C(=O)O)[C@@H](O)[C@H](O)[C@H]3NC(=O)CCCCCCCCC(C)C)Oc3ccc(cc3Cl)[C@@H](O)[C@@H]3NC(=O)[C@H](NC(=O)[C@@H]4NC(=O)[C@@H](NC2=O)c2cc(cc(O)c2Cl)Oc2cc1ccc2O)c1ccc(O)c(c1)-c1c(O[C@H]2O[C@H](CO)[C@@H](O)[C@H](O)[C@@H]2O)cc(O)cc1[C@@H](C(=O)NCCCN(C)C)NC3=O [DALBAVANCIN]
MIC50 (Staphylococcus aureus [16]): 0.06 µg/mL (≈ 0.033 µM)
MIC90 (Staphylococcus aureus [16]): 0.06 µg/mL (≈ 0.033 µM)
MIC50 (Staphylococcus aureus [17]): 0.06 µg/mL (≈ 0.033 µM)
MIC90 (Staphylococcus aureus [17]): 0.06 µg/mL (≈ 0.033 µM)
MIC (Staphylococcus [18]): ≤ 0.03 µg/mL
MIC50 (Staphylococcus [18]): ≤ 0.03 µg/mL
MIC90 (Staphylococcus [18]): 0.06 µg/mL (≈ 0.033 µM)
MIC90 (Staphylococcus [19]): 0.12 µg/mL (≈ 0.0661 µM)
MIC (Enterococcus faecalis [3]): ≤ 0.03 µg/mL
MIC50 (Enterococcus faecalis [3]): ≤ 0.03 µg/mL
MIC90 (Enterococcus faecalis [3]): 0.06 µg/mL (≈ 0.033 µM)
MIC50 (Enterococcus faecalis [4]): > 4 µg/mL
MIC90 (Enterococcus faecalis [4]): > 4 µg/mL
MIC50 (Enterococcus faecium [5]): 0.06 µg/mL (≈ 0.033 µM)
MIC90 (Enterococcus faecium [5]): 0.12 µg/mL (≈ 0.0661 µM)
MIC50 (Enterococcus faecium [6]): > 4 µg/mL
MIC90 (Enterococcus faecium [6]): > 4 µg/mL
MIC (Streptococcus [20]): 0.03 µg/mL (≈ 0.0165 µM)
MIC50 (Streptococcus [20]): 0.03 µg/mL (≈ 0.0165 µM)
MIC90 (Streptococcus [20]): 0.03 µg/mL (≈ 0.0165 µM)
MIC (Streptococcus [21]): 0.03 µg/mL (≈ 0.0165 µM)
MIC50 (Streptococcus [21]): 0.03 µg/mL (≈ 0.0165 µM)
MIC90 (Streptococcus [21]): 0.03 µg/mL (≈ 0.0165 µM)
Activity (Staphylococcus aureus [22]): 100%
Activity (Staphylococcus [24]): 99.8%
Activity (Staphylococcus [25]): 99.2%
Activity (Enterococcus faecalis [7]): >99.9%
Activity (Enterococcus faecalis [8]): 27.8%
Activity (Enterococcus faecium [9]): 99.6%
Activity (Enterococcus faecium [10]): 11.4%
Activity (Streptococcus [26]): 100%
Activity (Streptococcus [27]): 100%

CC1(C)S[C@@H]2[C@H](NC(=O)Cc3ccccc3)C(=O)N2[C@H]1C(=O)O [PENICILLIN G]
Activity (Streptococcus [13]): 6%
MIC (Streptococcus [20]): 0.015 µg/mL (≈ 0.0449 µM)
MIC50 (Streptococcus [20]): 0.015 µg/mL (≈ 0.0449 µM)
MIC90 (Streptococcus [20]): 0.06 µg/mL (≈ 0.179 µM)
MIC50 (Streptococcus [21]): 0.06 µg/mL (≈ 0.179 µM)
MIC90 (Streptococcus [21]): 1 µg/mL (≈ 2.99 µM)
Activity (Streptococcus [26]): 99.9%
Activity (Streptococcus [27]): 71.7%
